US11254640B2, “N-substituted indoles and other heterocycles for treating brain disorders” (The Regents of the University of California, priority 2019, dated 2022)

These compounds were tested on 5HT2A sensor (assay: 5HT2A sensor assay, antagonist mode (sLight1.3s HEK293T stable line)). Details: 100 nM compound; relative to 5-HT at 100 nM.
Format: cell-based
Description: In some embodiments, the 5HT2A sensor assay is in an antagonist mode.
(§1) 5HT2A Sensor Assays. HEK293T (ATCC) 5HT2A sensor stable line (sLight1.3s) was generated via lentiviral transduction of HIV-EF1α-sLight1.3 and propagated from a single colony. Lentivirus was produced using 2nd generation lentiviral plasmids pHIV-EF1α-sLight1.3, pHCMV-G, and pCMV-deltaR8.2.
(§2) For the screening of the 41 compounds, sLight1.3s cells were plated in 96-well plates at a density of 40000 24-hours prior to imaging. On the day of imaging, compounds solubilized in DMSO were diluted from the 100 mM stock solution to working concentrations of 1 mM, 100 μM and 1 μM with a DMSO concentration of 1%. Immediately prior to imaging, cells growing in DMEM (Gibco) were washed 2× with HBSS (Gibco) and in agonist mode 180 μL of HBSS or in antagonist mode 160 μL of HBSS was added to each well after the final wash. For agonist mode, images were taken before and after the addition of the 20 μL compound working solution into the wells containing 180 μL HBSS. This produced final compound concentrations of 100 μM, 10 μM and 100 nM with a DMSO concentration of 0.1%. For antagonist mode, images were taken before and after addition of 20 μL of 900 nM 5-HT and again after 20 μL of the compound working solutions to produce final concentrations of 100 nM for 5HT and 100 μM, 10 μM and 100 nM for the compounds with a DMSO concentration of 0.1%. Each compound was tested in triplicates (3 wells) for each concentration (100 μM, 10 μM and 100 nM). Additionally, within each plate, 100 nM 5HT and 0.1% DMSO controls were also imaged.
(§3) Imaging was performed using the Leica DMi8 inverted microscope with a 40× objective using the FITC preset with an excitation of 460 nm and emission of 512-542 nm. For each well, the cellular membrane where the 5HT2A sensor is targeted was autofocused using the adaptive focus controls and 5 images from different regions within the well were taken with each image processed from a 2×2 binning.
(§4) For data processing, the membranes from each image was segmented and analyzed using a custom algorithm written in MATLAB producing a single raw fluorescence intensity value. For each well the 5 raw fluorescence intensity values generated from the 5 images were averaged and the change in fluorescence intensity (dFF) was calculated as: dFF=(Fsat−Fapo)/Fapo
(§5) For both agonist and antagonist modes, the fluorescence intensity values before compound addition in HBSS only were used as the Fapo values while the fluorescence intensity values after compound addition were used as the Fsat values.
(§6) For agonist mode, data are as percent activation relative to 5HT, where 0 is the average of the DMSO wells and 100 is the average of the 100 uM 5HT wells. For antagonist mode, the inactivation score was calculated as: Inactivation score=(dFFF(Compound+5HT)−dFF(5HT))/dFF(5HT)

| Structure (SMILES) | 5HT2A Antagonist mean @ 100 nM (%) |
| --- | --- |
| COc1cc2ccn(C[C@@H](C)N(C)C)c2cc1OC [Example 62, (R)-1-(5,6-dimethoxy-1H-indol-1-yl)-N,N-dimethylpropan-2-amine] | B (inhibits 5HT response by 75% to 100%) |
| COc1cc(OC)c2c(ccn2C[C@@H](C)N(C)C)c1 [Example 63, (R)-1-(5,7-dimethoxy-1H-indol-1-yl)-N,N-dimethylpropan-2-amine] | B (inhibits 5HT response by 75% to 100%) |

Same assay, conditions: 10 μM compound; relative to 5-HT at 100 nM

| Structure (SMILES) | 5HT2A Antagonist mean @ 10 μM (%) |
| --- | --- |
| COc1cc2ccn(C[C@@H](C)N(C)C)c2cc1OC [Example 62, (R)-1-(5,6-dimethoxy-1H-indol-1-yl)-N,N-dimethylpropan-2-amine] | B (inhibits 5HT response by 75% to 100%) |
| COc1cc(OC)c2c(ccn2C[C@@H](C)N(C)C)c1 [Example 63, (R)-1-(5,7-dimethoxy-1H-indol-1-yl)-N,N-dimethylpropan-2-amine] | B (inhibits 5HT response by 75% to 100%) |

Same assay, conditions: 100 μM compound; relative to 5-HT at 100 nM

| Structure (SMILES) | 5HT2A Antagonist mean @ 100 μM (%) |
| --- | --- |
| COc1cc2ccn(C[C@@H](C)N(C)C)c2cc1OC [Example 62, (R)-1-(5,6-dimethoxy-1H-indol-1-yl)-N,N-dimethylpropan-2-amine] | A (inhibits 5HT response by >100%) |
| COc1cc(OC)c2c(ccn2C[C@@H](C)N(C)C)c1 [Example 63, (R)-1-(5,7-dimethoxy-1H-indol-1-yl)-N,N-dimethylpropan-2-amine] | A (inhibits 5HT response by >100%) |

The compounds below were run against T1, 5HT2A (Homo sapiens, UniProt P28223) (assay: Calcium flux assay (Calcium secondary messenger pathway)). Details: agonist mode.
T1 construct: expressed in transfected cells
T1 sequence (P28223 whole entry): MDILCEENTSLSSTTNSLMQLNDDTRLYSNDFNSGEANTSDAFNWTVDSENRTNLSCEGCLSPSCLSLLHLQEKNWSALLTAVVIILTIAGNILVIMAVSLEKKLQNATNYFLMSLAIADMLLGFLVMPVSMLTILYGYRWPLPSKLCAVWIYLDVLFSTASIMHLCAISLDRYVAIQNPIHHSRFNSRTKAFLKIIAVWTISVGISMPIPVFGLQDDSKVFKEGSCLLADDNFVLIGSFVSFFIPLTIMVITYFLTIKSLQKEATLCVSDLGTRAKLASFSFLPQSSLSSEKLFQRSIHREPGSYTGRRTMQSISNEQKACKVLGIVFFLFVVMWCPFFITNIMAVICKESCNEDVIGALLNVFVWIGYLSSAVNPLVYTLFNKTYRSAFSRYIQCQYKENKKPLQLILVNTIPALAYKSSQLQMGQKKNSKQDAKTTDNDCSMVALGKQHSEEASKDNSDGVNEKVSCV
Format: cell-based
Text: Calcium Flux Assay. Calcium Secondary Messenger Pathway. The Calcium No Wash^PLUS assay monitors the activation of a GPCR (e.g., 5HT2A) via Gq secondary messenger signaling in a live cell, non-imaging assay format. Calcium mobilization in PathHunter® cell lines or other cell lines stably expressing Gq-coupled GPCRs (e.g., 5HT2A) is monitored using a calcium-sensitive dye that is loaded into cells. GPCR (e.g., 5HT2A) activation by a compound results in the release of calcium from intracellular stores and an increase in dye fluorescence that is measured in real-time. In some embodiments, the ability of a compound of the present invention to modulate 5-HT2A function is determined using a calcium flux assay. In some embodiments, a compound of the present invention activates a calcium flux assay.
Calcium Secondary Messenger Pathway. Cell lines were expanded from freezer stocks according to standard procedures. Cells were seeded in a total volume of 20 μL into black-walled, clear-bottom, Poly-D-lysine coated 384-well microplates and incubated at 37° C. for the appropriate time prior to testing. Assays were performed in 1× Dye Loading Buffer consisting of 1× Dye, 1× Additive A and 2.5 mM Probenecid in HBSS/20 mM Hepes. Probenicid was prepared fresh. Cells were loaded with dye prior to testing. Media was aspirated from cells and replaced with 20 μL Dye Loading Buffer. Cells were incubated for 30-60 minutes at 37° C.
For agonist determination, cells were incubated with sample to induce response. After dye loading, cells were removed from the incubator and 10 μL HBSS/20 mM Hepes was added. 3× vehicle was included in the buffer when performing agonist dose curves to define the EC80 for subsequent antagonist assays. Cells were incubated for 30 minutes at room temperature in the dark to equilibrate plate temperature. Intermediate dilution of sample stocks was performed to generate 4× sample in assay buffer. Compound agonist activity was measured on a FLIPR Tetra (MDS). Calcium mobilization was monitored for 2 minutes and 10 μL 4× sample in HBSS/20 mM Hepes was added to the cells 5 seconds into the assay.
Compound activity was analyzed using CBIS data analysis suite (ChemInnovation, CA). For agonist mode assays, percentage activity is calculated using the following formula: % Activity=100%×(mean RFU of test sample−mean RFU of vehicle control)/(mean MAX RFU control ligand−mean RFU of vehicle control).

| Structure (SMILES) | EC50 |
| --- | --- |
| COc1cc2ccn(C[C@@H](C)N(C)C)c2cc1OC [Example 62, (R)-1-(5,6-dimethoxy-1H-indol-1-yl)-N,N-dimethylpropan-2-amine] | > 10 µM |
| COc1cc(OC)c2c(ccn2C[C@@H](C)N(C)C)c1 [Example 63, (R)-1-(5,7-dimethoxy-1H-indol-1-yl)-N,N-dimethylpropan-2-amine] | > 10 µM |

What follows are compounds tested on 5HT2A sensor (assay: 5HT2A sensor assay, agonist mode (sLight1.3s HEK293T stable line)). Details: 100 nM compound; percent relative to 5-HT at 100 uM.
Format: cell-based
Description: In some embodiments, hallucinogenic potential of a compound of the present invention is determined in vitro. In some embodiments, hallucinogenic potential of a compound of the present invention is determined using a 5HT2A sensor assay. In some embodiments, the 5HT2A sensor assay is in an agonist mode or an antagonist mode. In some embodiments, the 5HT2A sensor assay is in an agonist mode.
as §1, §2, §3, §4, §5, §6

| Structure (SMILES) | 5HT2A Agonist mean @ 100 nM (%) |
| --- | --- |
| COc1cc2ccn(C[C@@H](C)N(C)C)c2cc1OC [Example 62, (R)-1-(5,6-dimethoxy-1H-indol-1-yl)-N,N-dimethylpropan-2-amine] | B (does not activate 5HT2A sensor assay in agonist mode) |
| COc1cc(OC)c2c(ccn2C[C@@H](C)N(C)C)c1 [Example 63, (R)-1-(5,7-dimethoxy-1H-indol-1-yl)-N,N-dimethylpropan-2-amine] | B (does not activate 5HT2A sensor assay in agonist mode) |

Same assay, conditions: 10 μM compound; percent relative to 5-HT at 100 uM

| Structure (SMILES) | 5HT2A Agonist mean @ 10 μM (%) |
| --- | --- |
| COc1cc2ccn(C[C@@H](C)N(C)C)c2cc1OC [Example 62, (R)-1-(5,6-dimethoxy-1H-indol-1-yl)-N,N-dimethylpropan-2-amine] | B (does not activate 5HT2A sensor assay in agonist mode) |
| COc1cc(OC)c2c(ccn2C[C@@H](C)N(C)C)c1 [Example 63, (R)-1-(5,7-dimethoxy-1H-indol-1-yl)-N,N-dimethylpropan-2-amine] | B (does not activate 5HT2A sensor assay in agonist mode) |

Same assay, conditions: 100 μM compound; percent relative to 5-HT at 100 uM

| Structure (SMILES) | 5HT2A Agonist mean @ 100 μM (%) |
| --- | --- |
| COc1cc2ccn(C[C@@H](C)N(C)C)c2cc1OC [Example 62, (R)-1-(5,6-dimethoxy-1H-indol-1-yl)-N,N-dimethylpropan-2-amine] | A (activates 5HT2A sensor assay in agonist mode) |
| COc1cc(OC)c2c(ccn2C[C@@H](C)N(C)C)c1 [Example 63, (R)-1-(5,7-dimethoxy-1H-indol-1-yl)-N,N-dimethylpropan-2-amine] | B (does not activate 5HT2A sensor assay in agonist mode) |

These compounds were tested on rat cortical neurons (assay: Neurite outgrowth assay). Details: Cortical neurone, 1 hour treatment at DIV 4, analysed DIV 7, fold vs DMSO control, read-out: Neurite Average Length @ 10 μM.
Format: cell-based
Text: Neurite outgrowth assay. Changes in the pattern of neurite outgrowth have been implicated in neurodegenerative disorders as well as traumatic injuries. The discovery of new compounds that can positively affect neuritogenesis are important for developing new therapeutics for neurological diseases. Measurement of neurite outgrowth of rat cortical neurons using an automated image-based assay was used to determine the neuroplastic effects of the compounds of the present invention. In some embodiments, a compound of the present invention increases the pattern of neurite outgrowth. In some embodiments, a compound of the present invention increases neurite average length compared to a control. In some embodiments, a compound of the present invention increases neurite branch points compared to a control. In some embodiments, a compound of the present invention increases neurite average length and neurite branch points compared to a control.
Neurite Outgrowth Assay. Rat cortical neurons (20,000 cells/well) were freshly isolated from embryonic day 18 rats and cultured in Neurobasal Medium (+B27). The cultured cells were plated in 96 well-plates (avoiding external wells). At DIV 4, the neurons were treated with compound or control (10 μM) for 1 hour followed by complete washout of the compound. At DIV 7, the neurons were analyzed. The experiments were performed in triplicate. Neurite outgrowth was measured analyzing the following parameters: Number of Cell Bodies, total neurite length (pixels), Root Count, Segments, Extremities Count and node points. Changes in the pattern of neurite outgrowth of the neurons were analyzed by immunocytochemistry against β-III-tubulin. Pictures were acquired by the CellInsight CX7 from Thermo Fisher and analyzed using its software. Results generated in the equipment were maximum neurite length, extremity count, root count, dendrite branch points, and total neurite length. The results were compared to DMSO control, representing the fold-change in neuronal outgrowth.

| Structure (SMILES) | fold induction at 10 µM |
| --- | --- |
| COc1cc2ccn(C[C@@H](C)N(C)C)c2cc1OC [Example 62, (R)-1-(5,6-dimethoxy-1H-indol-1-yl)-N,N-dimethylpropan-2-amine] | 1.5 to 3 |
| COc1cc(OC)c2c(ccn2C[C@@H](C)N(C)C)c1 [Example 63, (R)-1-(5,7-dimethoxy-1H-indol-1-yl)-N,N-dimethylpropan-2-amine] | 1.5 to 3 |

Same assay, conditions: Cortical neurone, 1 hour treatment at DIV 4, analysed DIV 7, fold vs DMSO control, read-out: Neurite Branch Points: @ 10 μM

| Structure (SMILES) | fold induction at 10 µM |
| --- | --- |
| COc1cc2ccn(C[C@@H](C)N(C)C)c2cc1OC [Example 62, (R)-1-(5,6-dimethoxy-1H-indol-1-yl)-N,N-dimethylpropan-2-amine] | 1.5 to 3 |
| COc1cc(OC)c2c(ccn2C[C@@H](C)N(C)C)c1 [Example 63, (R)-1-(5,7-dimethoxy-1H-indol-1-yl)-N,N-dimethylpropan-2-amine] | 1.5 to 3 |
